From US20190358206A1, “TOPICAL FORMULATIONS OF BIARYL HETEROCYCLIC COMPOUNDS AND METHODS OF USE THEREOF” (Melinta Subsidiary Corp., priority 2016, published 2019)
In brackets after ≈: the same amount, converted by molar mass.

Assays:
[1] = system: Staphylococcus aureus 01A1095, Mac-R; assay: MIC against ribosome-based resistance phenotypes; assay type: cell-based; conditions: read-out: Minimum Inhibitory Concentration (MIC)
S. aureus ATCC 29213 [2] = assay: Agar dilution MIC (CLSI reference method); assay type: cell-based; conditions: Staphylococcus aureus, ATCC29213
S. aureus ATCC 29213 [3] = assay: Broth microdilution MIC (CLSI); assay type: cell-based
[4] = system: B. thetaiotaomicron ATCC 29741; assay: microbe, parasite or virus in culture; assay type: cell-based; conditions: for MIC: Bacteroides thetaiotaomicron, ATCC29741, read-out: MIC, Broth
[5] = Dynamic vapor sorption/desorption (DVS); assay type: physicochemical
Description: Dynamic vapor sorption/desorption (DVS) data were collected on a VTI SGA-100 Vapor Sorption Analyzer. […] Samples were not dried prior to analysis. Equilibrium criteria used for analysis were less than 0.0100% weight change in 5 minutes, with a maximum equilibration time of 3 hours if the weight criterion was not met. Data were not corrected for the initial moisture content of the samples. Sodium chloride and polyvinylpyrrolidine (PVP) were used as calibration standards.

[6] = Solubility of salts in water by HPLC at 23° C.; assay type: physicochemical; conditions: for Adjusted pH: pH after adjustment to approximately 3.5; for Native pH: supernatant of saturated solution in water
Description: In another set of experiments, solubility of various radezolid salts was determined by HPLC. Approximately 1 mL of saturated solution (with excess of solid in solution) of each salt was prepared in water. The mixture was further mixed overnight on a slurry wheel then centrifuged on a desktop centrifuge at maximum speed for approximately 5 min. The supernatant was collected, and pH was measured. Solubility was determined at the native pH. Then the pH was adjusted to approximately 3.5 with sodium hydroxide solution or an acid solution in which salt was generated. The supernatant was filtered through a 0.2 µm nylon syringe filter and diluted into 0.1% formic acid solution immediately after filtration for HPLC. All HPLC analyses were performed using an Agilent 1100 series liquid chromatograph equipped with a diode array detector, degasser, quaternary pump, and an autosampler. […] The column temperature was set to 30° C., and the detector wavelength was 270 nm with a bandwidth of 8 nm and a reference wavelength of 360 nm. The mobile phase A was 0.1% formic acid in water (HPLC grade), mobile phase B was 0.1% formic acid in methanol (HPLC grade). […] The injection volume was 5 μL.

[7] = Solubility of salts in approved topical solvents; assay type: physicochemical
Description: The solubility of radezolid HCl salt in various approved topical solvents was measured at 19-21° C. by adding a known amount of the radezolid HCl salt to a known amount of the solvent. Increasing amounts of the radezolid HCl salt were added if the solvent was not saturated.
The solubility of radezolid esylate and mesylate salts in various approved topical solvents was measured at 19-21° C. by adding a known amount of the radezolid salts to a known amount of the solvent. Increasing amounts of the radezolid salts were added if the solvent was not saturated.

physchem = assay type: physicochemical; conditions: pH 5.5, aqueous buffer
[8] = in vivo
[9] = Long-term rat safety study (body weight, survival, clinical pathology, exposure)
F. magna ATCC 15794 = assay: Agar dilution MIC (CLSI reference method); assay type: cell-based
P. acnes ATCC 11828 = assay: Agar dilution MIC (CLSI reference method); assay type: cell-based; conditions: P. acnes (isolates of Table 1)
P. granulosum ATCC 25746 [10] = assay: Agar dilution MIC (CLSI reference method); assay type: cell-based
G. vaginalis ATCC 14018 = assay: Agar dilution MIC (CLSI reference method); assay type: cell-based; conditions: G. vaginalis (isolates of Table 1)
P. granulosum ATCC 25746 [11] = assay: Broth microdilution MIC (CLSI); assay type: cell-based
G. vaginalis ATCC 49145 = assay: Broth microdilution MIC (CLSI); assay type: cell-based; conditions: G. vaginalis 49145
[12] = Granuloma pouch: bacterial burden and radezolid levels in pouch and plasma; assay type: in vivo; conditions: FIGS. 3-4
[13] = Solubility of free base in oily excipients; assay type: physicochemical; conditions: 19-21° C.
Description: The solubility of radezolid free base in various oily excipients was measured at 19-21° C. by adding a known amount of the free base to a known amount of the oily excipients. Increasing amounts of the free base were added if the oily excipient was not saturated.
In some embodiments, facial acne formulations are disclosed herein. In some embodiments, the amount of oil in an emulsion base (cream or lotion) is between 10-15% w/w. In further embodiments, the amount of oil in an emulsion base (cream or lotion) is less than 10%. To obtain a 1% w/w formulation of the free base dissolved in a dispersed oil phase, its solubility in that oil phase needs to be approximately 10% w/w. Radezolid free base was screened in oily excipients at a level of approximately 5% w/w. If an oily excipient could not dissolve at least 5% w/w, it would be unlikely to contribute to higher solubility in other oily excipients (i.e. low potential for synergy).

ten isolates (ATCC) = assay type: cell-based; conditions: for all organisms
[14] = system: mammalian cells (e.g., defense cells, macrophages, lung cells, and non-phagocytic cells); conditions: cited from earlier work
[15] = Solubility of salts in water, visual/microscopic
Description: Approximately 2-3.5 mg of each salt was weighed into a glass vessel at ambient temperature. HPLC grade water, 200 μL, was added to each and stirred with a stir bar for two hours. Samples were inspected for solubility both visually and/or microscopically using a Carl Zeiss SV8 stereomicroscope.

CC[C@H]1OC(=O)[C@H](C)[C@@H](O[C@H]2C[C@@](C)(OC)[C@@H](O)[C@H](C)O2)[C@H](C)[C@@H](O[C@@H]2O[C@H](C)C[C@H](N(C)C)[C@H]2O)[C@](C)(O)C[C@@H](C)CN(C)[C@H](C)[C@@H](O)[C@]1(C)O [Azithromycin, azithromycin]
MIC [1]: 128 µg/mL (≈ 171 µM)

CCC[C@@H]1C[C@@H](C(=O)N[C@@H]([C@H]2O[C@H](SC)[C@H](O)[C@@H](O)[C@H]2O)[C@H](C)Cl)N(C)C1 [Clindamycin, clindamycin]
MIC (S. aureus ATCC 29213 [2]): 0.25 µg/mL (≈ 0.588 µM) | MIC lower than radezolid (S. aureus ATCC 29213 [3]): 8 fold

C[C@H]1c2cccc(O)c2C(=O)C2=C(O)[C@]3(O)C(=O)C(C(N)=O)=C(O)[C@@H](N(C)C)[C@@H]3[C@@H](O)[C@@H]21 [DOX, doxycycline]
MIC more potent than radezolid ([4]; B. thetaiotaomicron): 4 fold | MIC [4]: 2 µg/mL (≈ 4.5 µM) | MIC lower than radezolid (S. aureus ATCC 29213 [3]): 4 fold

CC[C@H]1OC(=O)[C@H](C)[C@@H](O[C@H]2C[C@@](C)(OC)[C@@H](O)[C@H](C)O2)[C@H](C)[C@@H](O[C@@H]2O[C@H](C)C[C@H](N(C)C)[C@H]2O)[C@](C)(O)C[C@@H](C)C(=O)[C@H](C)[C@@H](O)[C@]1(C)O [ERY, erythromycin]
MIC [4]: 16 µg/mL (≈ 21.8 µM)

O=S(=O)(O)CCS(=O)(=O)O [Ethane-1,2-disulfonate]
DVS Desorption: weight loss from 95 to 5% RH [5]: Desorption: 2.388% weight loss | DVS Sorption: weight loss upon equilibration at 5% RH [5]: Sorption: 0.017% weight loss | Adjusted pH [6]: 3.6 | Native pH [6]: 2.0 | Solubility at Native pH ([6]; water, 23° C., HPLC): >133.2 mg/mL | Solubility at Adjusted pH ([6]; water, 23° C., HPLC, pH adjusted to approximately 3.5): >116.9 mg/mL

CC(=O)NC[C@H]1CN(c2ccc(-c3ccc(CNCc4c[nH]nn4)cc3)c(F)c2)C(=O)O1.Cl [Hydrochloride, (5S)—N-[3-(2-Fluoro-4′-{[(1H-[1,2,3]triazol-4-ylmethyl)-amino]-methyl}-biphenyl-4-yl)-2-oxo-oxazolidin-5-ylmethyl]-acetamide Chloride]
DVS Desorption: weight loss from 95 to 5% RH [5]: Desorption: 0.069% weight loss | DVS Sorption: weight gain from 5 to 95% RH [5]: 0.064% weight gain from 5 to | DVS Sorption: weight gain upon equilibration at 5% RH [5]: Sorption: 0.03% weight gain | Solubility ([6]; pH 4.6, thermodynamic from solid, water, 23° C., HPLC, read-out: Solubility at Native pH): 1700 µg/mL | Adjusted pH [6]: 3.5 | Native pH [6]: 4.6 | Solubility ([7]; 50% Ethanol/50% phosphate buffer (pH = 7.4), 19-21° C.): <0.2 % w/w | Solubility ([7]; 50% Ethanol/50% water, 19-21° C.): <0.6 % w/w | Solubility ([7]; Diethylene glycol monoethyl ether (Transcutol), 19-21° C.): <0.2 % w/w | Solubility ([7]; Ethanol, 19-21° C.): <0.2 % w/w | Solubility ([7]; Glycerin, 19-21° C.): <0.2 % w/w | Solubility ([7]; Hexylene glycol, 19-21° C.): <0.2 % w/w | Solubility ([7]; PEG 300, 19-21° C.): <0.2 % w/w | Solubility ([7]; Phosphate buffer (pH = 7.4), 19-21° C.): <0.2 % w/w | Solubility ([7]; Propylene glycol, 19-21° C.): <0.2 % w/w | Solubility (physchem): > 100 µg/mL

CC(=O)NC[C@H]1CN(c2ccc(N3CCOCC3)c(F)c2)C(=O)O1 [Linezolid, linezolid, reference compound]
MIC (S. aureus ATCC 29213 [2]): 2 µg/mL (≈ 5.93 µM) | bone marrow cellularity ([8]; rat, 100 mg/kg/day): decreased cellularity of sternal and femoral bone marrow | hematology at unscheduled euthanization ([9]; rat, 100 mg/kg/day, day 75): decreased red cell mass, absolute reticulocyte and neutrophil counts

Cc1ncc([N+](=O)[O-])n1CCO [MET, metronidazole]
MIC [4]: 4 µg/mL (≈ 23.4 µM)

CC(=O)NC[C@H]1CN(c2ccc(-c3ccc(CNCc4cnn[nH]4)cc3)c(F)c2)C(=O)O1 [Radezolid, N-[3-(2-Fluoro-4′-{[(1H-[1,2,3]triazol-4-ylmethyl)-amino]-methyl}-biphenyl-4-yl)-2-oxo-oxazolidin-5-(S)-ylmethyl]-acetamide]
Agar dilution MIC more potent than linezolid (F. magna ATCC 15794): 4 fold | Agar dilution MIC more potent than linezolid (P. acnes ATCC 11828): 4 fold | Agar dilution MIC more potent than linezolid (P. granulosum ATCC 25746 [10]): 8 fold | Agar dilution MIC more potent than linezolid (G. vaginalis ATCC 14018): 8 fold | MIC (S. aureus ATCC 29213 [2]): 1 µg/mL (≈ 2.28 µM) | Broth microdilution: more active than linezolid (P. granulosum ATCC 25746 [11]): 8 fold | Broth microdilution: more active than linezolid (G. vaginalis ATCC 49145): 8 fold | radezolid levels in granuloma pouch versus plasma over time [12]: remain high in granuloma pouch even as they decline in the plasma | Solubility ([13]; Benzyl benzoate (BB)): <1.5 % w/w | Solubility ([13]; Cyclomethicone): <0.75 % w/w | Solubility ([13]; Diisopropyl adipate (DIA)): <1.5 % w/w | Solubility ([13]; Mineral oil): <1 % w/w | Solubility ([13]; Oleic acid): <0.75 % w/w | agar dilution MICs, range over organisms (ten isolates (ATCC)): 0.06 to 1 µg/mL | survival ([8]; both, rat): 100% | safety in long-term rat studies, overall [8]: good safety | changes in hematology, coagulation, clinical chemistry, or urinalysis ([8]; rat): No test article-related changes were observed | accumulation in mammalian cells, greater extent than linezolid [14]: 17 fold | share accumulating in the cytosol of cells [14]: Approximately 60% | share accumulating in the lysosome [14]: approximately 40% | Safety margin (Rat NOAEL AUC/Human efficacious AUC) ([9]; rat 200 mg/kg Day 29 vs human 300 mg): 30.8x

O=C(O)c1ccccc1O [Salicylate]
Solubility [15]: <30 µg/mL

CN(C)[C@@H]1C(O)=C(C(N)=O)C(=O)[C@@]2(O)C(O)=C3C(=O)c4c(O)cccc4[C@@](C)(O)[C@H]3C[C@@H]12 [TET, tetracycline]
MIC [4]: 8 µg/mL (≈ 18 µM)

Fumarate
Solubility ([15]; HPLC grade water, ambient temperature): 2600 µg/mL

Phosphate
Solubility [15]: 1100 µg/mL
